Assay results: patent US8017612B2, “Piperazine compound and use thereof as a HCV polymerase inhibitor” (priority 2006, dated 2011)
Structures can show the parent of a compound that is named as a salt.

Key:
[1] = target: T1, HCV polymerase (NS5B) type 1a (Hepatitis C virus genotype 1a, UniProt P26664); experiment: Assay of enzyme (HCV polymerase) inhibitory activity, type 1a enzyme; assay type: biochemical, HCV type 1a (cloned from the blood of patients); conditions: HCV polymerase inhibitory activity (IC50), 1a, type 1a enzyme 1.5 μg/ml, 25° C., 60 min
T1 construct: made in house; host or cells: Escherichia coli (by the 'similar method' of the 1b enzyme)
Outline: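 Patient-derived type 1a NS5B (C-terminal 47-aa deletion, His-tagged, E. coli-expressed) at 1.5 μg/ml was reacted with 5 μg/ml 3′UTR-containing substrate RNA, 50 μM ATP/GTP/CTP, 2 μM UTP plus [3H]UTP, pH 7.5, 25° C for 60 min. TCA-precipitated RNA radioactivity was counted; IC50 from ± compound.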

[2] = target: T2, HCV polymerase (NS5B) type 1b (Hepatitis C virus genotype 1b, UniProt P26663); experiment: Assay of enzyme (HCV polymerase) inhibitory activity, type 1b enzyme; assay type: biochemical, HCV BK strain (type 1b); conditions: HCV polymerase inhibitory activity (IC50), 1b, type 1b enzyme 0.5 μg/ml, 25° C., 60 min
T2 construct: a region encoding NS5B (J Virol 1991 March, 65(3), 1105-13, 544 amino acids after deletion of 47 amino acids on the C-terminal); 6xHis (C); made in house; host or cells: Escherichia coli
Outline: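 NS5B from HCV BK strain (type 1b), C-terminal 47 aa deleted, C-terminal His6-tagged, E. coli-expressed, 0.5 μg/ml, with ~450 nt substrate RNA carrying the 3′ UTR (polyU, 3′X) at 5 μg/ml. Incubation 60 min at 25 °C with 50 μM ATP/GTP/CTP, 2 μM UTP plus [3H]UTP, pH 7.5 Tris.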

| Compound | IC50 [1] | IC50 [2] |
| --- | --- | --- |
| CC(=O)N1CCN(S(=O)(=O)c2ccc(-n3cc(Cl)cn3)s2)C(C(=O)NCc2ccc(C(F)(F)F)cc2)C1 (centres unmarked) [Example 62, 4-acetyl-1-[5-(4-chloro-pyrazol-1-yl)-thiophene-2-sulfonyl]-piperazine-2-carboxylic acid 4-trifluoromethyl-benzylamide] | > 1000 nM | > 1000 nM |
| CC(C)c1ccc(S(=O)(=O)N2CCN(C=O)CC2C(=O)NCc2ccc(C(F)(F)F)cc2)cc1 (centres unmarked) [Example 63, 4-formyl-1-(4-isopropyl-benzenesulfonyl)-piperazine-2-carboxylic acid 4-trifluoromethyl-benzylamide] | > 1000 nM | > 1000 nM |
| CC(=O)N1CCN(S(=O)(=O)c2ccc(C)cc2)C(C(=O)NCc2ccc(C(F)(F)F)cc2)C1 (centres unmarked) [Example 64, 4-acetyl-1-(toluene-4-sulfonyl)-piperazine-2-carboxylic acid 4-trifluoromethyl-benzylamide] | > 1000 nM | > 1000 nM |
| CC(=O)N1CCN(S(=O)(=O)c2ccc(OC(F)(F)F)cc2)C(C(=O)NCc2ccc(C(F)(F)F)cc2)C1 (centres unmarked) [Example 65, 4-acetyl-1-(4-trifluoromethoxy-benzenesulfonyl)-piperazine-2-carboxylic acid 4-trifluoromethyl-benzylamide] | > 1000 nM | > 1000 nM |
| CC(=O)N1CCN(S(=O)(=O)c2ccc(Oc3cccnc3)cc2)C(C(=O)NCc2ccc(C(F)(F)F)cc2)C1 (centres unmarked) [Example 66, 4-acetyl-1-[4-(pyridin-3-yloxy)-benzenesulfonyl]-piperazine-2-carboxylic acid 4-trifluoromethyl-benzylamide hydrochloride] | > 1000 nM | > 1000 nM |
| CC(=O)N1CCN(S(=O)(=O)c2ccc(C(C)C)cc2)C(C(=O)NCc2ccccc2F)C1 (centres unmarked) [Example 67, 4-acetyl-1-(4-isopropyl-benzenesulfonyl)-piperazine-2-carboxylic acid 2-fluoro-benzylamide] | > 1000 nM | > 1000 nM |
| CC(=O)N1CCN(S(=O)(=O)c2ccc(C(C)C)cc2)C(C(=O)NCc2ccc(C(C)(C)C)cc2)C1 (centres unmarked) [Example 68, 4-acetyl-1-(4-isopropyl-benzenesulfonyl)-piperazine-2-carboxylic acid 4-tert-butyl-benzylamide] | 100 to 1000 nM | 100 to 1000 nM |
| CC(=O)N1CCN(S(=O)(=O)c2cnc(Cl)c(Br)c2)C(C(=O)NCc2ccc(C(F)(F)F)cc2)C1 (centres unmarked) [Example 69, 4-acetyl-1-(5-bromo-6-chloro-pyridine-3-sulfonyl)-piperazine-2-carboxylic acid 4-trifluoromethyl-benzylamide hydrochloride] | > 1000 nM | > 1000 nM |
| CC(=O)N1CCN(S(=O)(=O)c2ccc(N3CCOCC3)nc2)C(C(=O)NCc2ccc(C(F)(F)F)cc2)C1 (centres unmarked) [Example 70, 4-acetyl-1-(6-morpholin-4-yl-pyridine-3-sulfonyl)-piperazine-2-carboxylic acid 4-trifluoromethyl-benzylamide hydrochloride] | > 1000 nM | > 1000 nM |
| COc1cccc(S(=O)(=O)N2CCN(C(C)=O)CC2C(=O)NCc2ccc(C(F)(F)F)cc2)c1 (centres unmarked) [Example 71, 4-acetyl-1-(3-methoxy-benzenesulfonyl)-piperazine-2-carboxylic acid 4-trifluoromethyl-benzylamide] | > 1000 nM | > 1000 nM |
| CCCc1ccc(S(=O)(=O)N2CCN(C(C)=O)CC2C(=O)NCc2ccc(C(F)(F)F)cc2)cc1 (centres unmarked) [Example 72, 4-acetyl-1-(4-propyl-benzenesulfonyl)-piperazine-2-carboxylic acid 4-trifluoromethyl-benzylamide] | > 1000 nM | 100 to 1000 nM |
| CC(=O)N1CCN(S(=O)(=O)c2ccc(-c3ccccc3)cc2)C(C(=O)NCc2ccc(C(F)(F)F)cc2)C1 (centres unmarked) [Example 73, 4-acetyl-1-(biphenyl-4-sulfonyl)-piperazine-2-carboxylic acid 4-trifluoromethyl-benzylamide] | > 1000 nM | > 1000 nM |
| CC(=O)N1CCN(S(=O)(=O)c2cc3ccccc3s2)C(C(=O)NCc2ccc(C(F)(F)F)cc2)C1 (centres unmarked) [Example 74, 4-acetyl-1-(benzo[b]thiophene-2-sulfonyl)-piperazine-2-carboxylic acid 4-trifluoromethyl-benzylamide] | > 1000 nM | > 1000 nM |
| CC(=O)N1CCN(S(=O)(=O)c2ccc(C(C)C)s2)C(C(=O)NCc2ccc(C(F)(F)F)cc2)C1 (centres unmarked) [Example 75, 4-acetyl-1-(5-isopropyl-thiophene-2-sulfonyl)-piperazine-2-carboxylic acid 4-trifluoromethyl-benzylamide] | > 1000 nM | > 1000 nM |
| COC(=O)c1ccc(CNC(=O)C2CN(C(C)=O)CCN2S(=O)(=O)c2ccc(C(C)C)cc2)cc1 (centres unmarked) [Example 76, 4-({[4-acetyl-1-(4-isopropyl-benzenesulfonyl)-piperazine-2-carbonyl]-amino}-methyl)-benzoic acid methyl ester] | > 1000 nM | > 1000 nM |
| CC(=O)N1CCN(S(=O)(=O)c2ccc(C(C)C)cc2)C(C(=O)NCc2ccc([N+](=O)[O-])cc2)C1 (centres unmarked) [Example 77, 4-acetyl-1-(4-isopropyl-benzenesulfonyl)-piperazine-2-carboxylic acid 4-nitro-benzylamide] | > 1000 nM | > 1000 nM |
| CC(=O)N1CCN(S(=O)(=O)c2ccc(C(C)C)cc2)C(C(=O)NCc2cccc(F)c2)C1 (centres unmarked) [Example 78, 4-acetyl-1-(4-isopropyl-benzenesulfonyl)-piperazine-2-carboxylic acid 3-fluoro-benzylamide] | > 1000 nM | > 1000 nM |
| CC(=O)N1CCN(S(=O)(=O)c2ccc(C(C)C)cc2)C(C(=O)NCCc2c[nH]c3ccccc23)C1 (centres unmarked) [Example 79, 4-acetyl-1-(4-isopropyl-benzenesulfonyl)-piperazine-2-carboxylic acid [2-(1H-indol-3-yl)-ethyl]-amide] | > 1000 nM | > 1000 nM |
| CC(=O)N1CCN(S(=O)(=O)c2ccc(C(C)C)cc2)C(C(=O)NCc2ccc(N3CCOCC3)cc2)C1 (centres unmarked) [Example 80, 4-acetyl-1-(4-isopropyl-benzenesulfonyl)-piperazine-2-carboxylic acid 4-morpholin-4-yl-benzylamide] | > 1000 nM | > 1000 nM |
| CC(=O)N1CCN(S(=O)(=O)c2ccc(C(C)C)cc2)C(C(=O)NCc2ccc(N3CCN(C)CC3)cc2)C1 (centres unmarked) [Example 81, 4-acetyl-1-(4-isopropyl-benzenesulfonyl)-piperazine-2-carboxylic acid 4-(4-methyl-piperazin-1-yl)-benzylamide] | > 1000 nM | > 1000 nM |
| CN(C)c1ccc(CNC(=O)C2CN(C(=O)OC(C)(C)C)CCN2S(=O)(=O)c2ccc(I)cc2)cc1 (centres unmarked) [Example 82, 3-(4-dimethylamino-benzylcarbamoyl)-4-(4-iodo-benzenesulfonyl)-piperazine-1-carboxylic acid tert-butyl ester] | > 1000 nM | > 1000 nM |
| CC(=O)N1CCN(S(=O)(=O)c2ccc(OC(C)C)cc2)C(C(=O)NCc2ccc(C(F)(F)F)cc2)C1 (centres unmarked) [Example 83, 4-acetyl-1-(4-isopropoxy-benzenesulfonyl)-piperazine-2-carboxylic acid 4-trifluoromethyl-benzylamide] | > 1000 nM | > 1000 nM |
| CN(C)c1ccc(CNC(=O)C2CNCCN2S(=O)(=O)c2ccc(I)cc2)cc1 (centres unmarked) [Example 84, 1-(4-iodo-benzenesulfonyl)-piperazine-2-carboxylic acid 4-dimethylamino-benzylamide hydrochloride] | > 1000 nM | > 1000 nM |
| CC(=O)N1CCN(S(=O)(=O)c2ccc(I)cc2)C(C(=O)NCc2ccc(N(C)C)cc2)C1 (centres unmarked) [Example 85, 4-acetyl-1-(4-iodo-benzenesulfonyl)-piperazine-2-carboxylic acid 4-dimethylamino-benzylamide] | 100 to 1000 nM | > 1000 nM |
| CN(C)c1ccc(CNC(=O)C2CN(C(=O)CNC(=O)OC(C)(C)C)CCN2S(=O)(=O)c2ccc(I)cc2)cc1 (centres unmarked) [Example 86, {2-[3-(4-dimethylamino-benzylcarbamoyl)-4-(4-iodo-benzenesulfonyl)-piperazin-1-yl]-2-oxo-ethyl}-carbamic acid tert-butyl ester] | > 1000 nM | > 1000 nM |
| CN(C)c1ccc(CNC(=O)C2CN(C(=O)CCNC(=O)OC(C)(C)C)CCN2S(=O)(=O)c2ccc(I)cc2)cc1 (centres unmarked) [Example 87, {3-[3-(4-dimethylamino-benzylcarbamoyl)-4-(4-iodo-benzenesulfonyl)-piperazin-1-yl]-3-oxo-propyl}-carbamic acid tert-butyl ester] | > 1000 nM | > 1000 nM |
| CN(C)c1ccc(CNC(=O)C2CN(C(=O)CN)CCN2S(=O)(=O)c2ccc(I)cc2)cc1 (centres unmarked) [Example 88, 4-(2-amino-acetyl)-1-(4-iodo-benzenesulfonyl)-piperazine-2-carboxylic acid 4-dimethylamino-benzylamide hydrochloride] | > 1000 nM | > 1000 nM |
| CN(C)c1ccc(CNC(=O)C2CN(C(=O)CCN)CCN2S(=O)(=O)c2ccc(I)cc2)cc1 (centres unmarked) [Example 89, 4-(3-amino-propionyl)-1-(4-iodo-benzenesulfonyl)-piperazine-2-carboxylic acid 4-dimethylamino-benzylamide hydrochloride] | > 1000 nM | > 1000 nM |
